Measurements: US11753363B2, “13-oxidized ingenol derivative and use thereof” (Tianjin Pharmaceutical Da Ren Tang Group Corp., Ltd. …, priority 2017, dated 2023)
≈ marks a conversion by molar mass, not a printed value.

What was measured:
Type in all cases: cell-based
[1] = tested on: A549 (human lung cancer cells); test: Inhibition of proliferation of tumor cell lines (MTT), A549; settings: Homo sapiens, A549, 72 h, read-out: IC50 value of compound for inhibition of proliferation of tumor cell lines, A549
Method: (§1) In this example, the inhibitory activity of compounds of the present invention against proliferation of seven human tumor cell lines and mouse B16-F10 melanoma cells was tested in vitro, and the IC50 value (50% inhibitory concentration) of compounds against each tumor cell line was calculated.
(§2) The seven human tumor cell lines are: MCF-7 (human breast cancer cells), LOVO (human colon cancer cells), A549 (human lung cancer cells), BGC-823 (human gastric cancer cells), SMMC-7721 (human liver cancer cells), K562 (human leukemia cells), and HeLa (human cervical cancer cells).
(§3) IC50 values of the compounds for A549, BGC-823, LOVO, MCF-7, SMMC-7721, HeLa, and B16-F10 cells were tested. The above cells were routinely cultured in 1640 nutrient solution containing 10% calf serum, with passage for 1 time every 2 days, and the cells in logarithmic growth phase were taken for experiments. After the A549, BGC-823, LOVO, MCF-7, SMMC-7721, HeLa and B16-F10 cells in logarithmic growth phase were subjected to 0.25% trypsin digestion, they were blown into a single cell suspension, and then the cell concentration was adjusted to about 1×10^5·mL^−1 using RPMI 1640 solution containing 10% calf serum. The cells were seeded in a 96-well culture plate at 100 μL per well, and cultured for 24 hours until the cells were attached. K562 cells were taken and centrifuged and diluted into 2×10^5·mL^−1 single cell suspension with RPMI 1640 solution containing 10% calf serum, and inoculated into a 96-well culture plate at 100 μL per well.
(§4) 100 μL of sample solution with different concentrations to be tested were added to the above 96-well plate, each concentration was added to 4 wells in parallel, and the cell control group was added with an equal volume of RPMI 1640 medium containing 10% calf serum to make a reaction volume of 200 μL. After incubating in an incubator at 37° C., 5% CO2 for 72 h, 10 μL of 5 mg·mL^−1 MTT solution was added to each well, and incubated at 37° C. for 4 h. The supernatant was carefully aspirated, 180 μL of DMSO was added to each well followed by shaking, and the absorbance (OD) value was measured at 570 nm on the microplate reader. The inhibition rate was calculated, and regression equation was established with the logarithmic value of the sample concentration and the inhibition rate (IR) to find the IC50 value of the compound against the cells to be tested. IR (%)=(1−OD value of the experimental group/OD value of the cell control group)×100%

[2] = tested on: BGC-823 (human gastric cancer cells); test: Inhibition of proliferation of tumor cell lines (MTT), BGC-823; settings: Homo sapiens, BGC-823, 72 h, read-out: IC50 value of compound for inhibition of proliferation of tumor cell lines, BGC-823
Method: as §1, §2, §3, §4

[3] = tested on: LOVO (human colon cancer cells); test: Inhibition of proliferation of tumor cell lines (MTT), LOVO; settings: Homo sapiens, 72 h, read-out: IC50 value of compound for inhibition of proliferation of tumor cell lines, LOVO
Method: as §1, §2, §3, §4

[4] = tested on: K562 (human leukemia cells); test: Inhibition of proliferation of tumor cell lines (MTT), K562; settings: Homo sapiens, K562, 72 h, read-out: IC50 value of compound for inhibition of proliferation of tumor cell lines, K562
Method: as §1, §2, §3, §4

[5] = tested on: SMMC-7721 (human liver cancer cells); test: Inhibition of proliferation of tumor cell lines (MTT), SMMC-7721; settings: Homo sapiens, SMMC-7721, 72 h, read-out: IC50 value of compound for inhibition of proliferation of tumor cell lines, SMMC-7721
Method: as §1, §2, §3, §4

[6] = tested on: MCF-7 (human breast cancer cells); test: Inhibition of proliferation of tumor cell lines (MTT), MCF-7; settings: Homo sapiens, MCF7, MCF-7, 72 h, read-out: IC50 value of compound for inhibition of proliferation of tumor cell lines, MCF-7
Method: as §1, §2, §3, §4

[7] = tested on: HeLa (human cervical cancer cells); test: Inhibition of proliferation of tumor cell lines (MTT), HeLa; settings: Homo sapiens, 72 h, read-out: IC50 value of compound for inhibition of proliferation of tumor cell lines, HeLA
Method: as §1, §2, §3, §4

[8] = tested on: mouse B16-F10 melanoma cells; test: Inhibition of proliferation of tumor cell lines (MTT), B16-F10; settings: Mus musculus, B16-F10, 72 h, read-out: IC50 value of compound for inhibition of proliferation of tumor cell lines, B16-F10
Method: as §1, §3, §4

[9] = tested on: neutrophilic granulocytes; test: Neutrophil oxidative burst (luminol chemiluminescence); settings: Neutrophil; 3 μg/mL; rat neutrophils; (Csample−Ccontrol)/Ccontrol×100%; read-out: Efficiency of compounds in stimulating neutrophil oxidative burst
Method: This example investigated the effect of compound on neutrophil oxidative burst and calculated the efficiency of each compound in stimulating neutrophil oxidative burst.
Blood was taken from the abdominal aorta of rat. The neutrophilic granulocytes were isolated by the operational procedure of the rat peripheral blood neutrophil isolation kit. The neutrophilic granulocytes were re-suspended by Hanks, and were plated in a 96-well white plate at 1×10^5 cells/well, 80 μL/well; 1 mM of Luminol was added at 10 μL/well; 10 μL of the sample was added to each well, and the degree of oxidative burst was evaluated by chemiluminescence. Calculation formula of Efficiency: Efficiency (%)=(Csample−Ccontrol)/Ccontrol×100%

[10] = tested on: release of IL-8 by human keratinocytes (HaCaT); test: Release of IL-8 by human keratinocytes (HaCaT), IL-8 Elisa; settings: Homo sapiens, HaCaT; 0.1 μg/mL; 24 h; (Csample−Ccontrol)/Ccontrol×100%; read-out: Efficiency of compound in stimulating the release of IL-8 by HaCaT cells
Method: This Example investigated the effect of compound on release of IL-8 by human keratinocytes (HaCaT) and calculated the efficiency of each compound in stimulating the release of IL-8 by human keratinocytes (HaCaT).
Hacat cells were cultured in MEM+10% FBS under the conditions of 37° C., 5% CO2, and when the cells reached 80-95% fusion, they were inoculated into a 96-well culture plate (1×10^4 cells/well) at 100 μL/well, and incubated for 18-24 h. The supernatant was discarded and the cells were incubated for 3-6 h in 1% FBS medium. Different concentrations of the sample solution of compound to be tested were added to each well, and the cell control group was added with an equal volume of 1% FBS medium at 10 μL/well, and incubated for 24 h. The supernatant was taken and tested according to the operation sequence of the IL-8 Elisa kit. Calculation formula of Efficiency: Efficiency (%)=(Csample−Ccontrol)/Ccontrol×100%

Compound | IC50 [1] [µg/mL] | IC50 [2] [µg/mL] | IC50 [3] [µg/mL] | IC50 [4] [µg/mL] | IC50 [5] [µg/mL] | IC50 [6] [µg/mL] | IC50 [7] [µg/mL] | IC50 [8] [µg/mL] | activation at 3 µg/mL [9] [%] | activation at 0.1 µg/mL [10] [%]
CCCCCCCCCCCC(=O)O[C@@]12C[C@@H](C)[C@]34C=C(C)[C@H](OC(=O)CCC)[C@@]3(O)[C@H](O)C(CO)=C[C@H](C4=O)[C@@H]1C2(C)C [Compound 11, 3-O-n-butanoyl-13-O-dodecanoyl-ingenol] | 14.3 (≈ 23.2 µM) | 13.4 (≈ 21.7 µM) | 8.82 (≈ 14.3 µM) | 0.1 (≈ 0.162 µM) | 19.1 (≈ 31 µM) | 18.5 (≈ 30 µM) | 20.3 (≈ 32.9 µM) | 26.2 (≈ 42.5 µM) | 33.5 | –
CCCCCCCCCCCC(=O)O[C@@]12C[C@@H](C)[C@]34C=C(C)[C@H](O)[C@@]3(O)[C@H](O)C(COC(=O)CCC)=C[C@H](C4=O)[C@@H]1C2(C)C [Compound 13, 20-O-n-butanoyl-13-O-dodecanoyl-ingenol] | 17.2 (≈ 27.9 µM) | 12.4 (≈ 20.1 µM) | 6.93 (≈ 11.2 µM) | 0.07 (≈ 0.113 µM) | 12.5 (≈ 20.3 µM) | 18 (≈ 29.2 µM) | 24.2 (≈ 39.2 µM) | 30.5 (≈ 49.4 µM) | 62.4 | 30.3
C/C=C(/C)C(=O)OCC1=C[C@@H]2C(=O)[C@]3(C=C(C)[C@H](O)[C@@]3(O)[C@@H]1O)[C@H](C)C[C@]1(OC(=O)CCCCCCCCCCC)[C@H]2C1(C)C [Compound 15b, 20-O-angeloyl-13-O-dodecanoyl-ingenol] | 10 (≈ 15.9 µM) | 20.6 (≈ 32.8 µM) | 15.2 (≈ 24.2 µM) | 0.001 (≈ 0.00159 µM) | 13.1 (≈ 20.8 µM) | 23.3 (≈ 37.1 µM) | 10.2 (≈ 16.2 µM) | 9.09 (≈ 14.5 µM) | 360 | –
C/C=C(\C)C(=O)O[C@H]1C(C)=C[C@]23C(=O)[C@@H](C=C(CO)[C@@H](O)[C@]12O)[C@@H]1C(C)(C)[C@]1(OC(=O)CCCCCCCCCCC)C[C@H]3C [Compound 20, 3-O-tigloyl-13-O-dodecanoyl-ingenol] | 13.1 (≈ 20.8 µM) | 11 (≈ 17.5 µM) | 9.91 (≈ 15.8 µM) | 0.81 (≈ 1.29 µM) | 18.4 (≈ 29.3 µM) | 6.8 (≈ 10.8 µM) | 7.45 (≈ 11.8 µM) | 3.33 (≈ 5.3 µM) | 43.8 | 109
